ChEMBL document CHEMBL1201861, “Genomics of Drug Sensitity in Cancer screening data, Wellcome Trust Sanger Institute”

Tests used:
Assay in all cases: cells
[1] = test system: COLO-829; assay type: functional, cell-based, Homo sapiens; conditions: Homo sapiens, COLO-829
Description: SANGER: Inhibition of human COLO-829 cell growth in a cell viability assay.

[2] = test system: D-263MG; assay type: functional, cell-based, Homo sapiens; conditions: Homo sapiens, D-263MG
Description: SANGER: Inhibition of human D-263MG cell growth in a cell viability assay.

[3] = test system: DU-4475; assay type: functional, cell-based, Homo sapiens; conditions: Homo sapiens, DU-4475
Description: SANGER: Inhibition of human DU-4475 cell growth in a cell viability assay.

[4] = test system: ES5; assay type: functional, cell-based, Homo sapiens; conditions: Homo sapiens, ES5;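 further: growth inhibition of human ES5 cells, read out by a cell viability assay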
Description: SANGER: Inhibition of human ES5 cell growth in a cell viability assay.

[5] = test system: ES6; assay type: functional, cell-based; conditions: Homo sapiens;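 further: growth inhibition of human ES6 cells, read out with a cell viability assay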
Description: SANGER: Inhibition of human ES6 cell growth in a cell viability assay.

[6] = test system: ES7; assay type: functional, cell-based, Homo sapiens; conditions: Homo sapiens, ES7;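 further: growth inhibition of cultured human ES7 cells, read out as cell viability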
Description: SANGER: Inhibition of human ES7 cell growth in a cell viability assay.

[7] = test system: EW-3; assay type: functional, cell-based, Homo sapiens; conditions: Homo sapiens, EW-3;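 further: cell viability assay read-out, IC50 reflects inhibition of growth of the EW-3 cells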
Description: SANGER: Inhibition of human EW-3 cell growth in a cell viability assay.

[8] = test system: GOTO; assay type: functional, cell-based, Homo sapiens; conditions: Homo sapiens, GOTO;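 further: growth inhibition of GOTO cells, read out by a cell viability assay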
Description: SANGER: Inhibition of human GOTO cell growth in a cell viability assay.

[9] = test system: HCC2218; assay type: functional, cell-based, Homo sapiens; conditions: Homo sapiens, HCC2218;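 further: cell viability assay read-out, with IC50 given as the concentration that inhibits growth of the cell line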
Description: SANGER: Inhibition of human HCC2218 cell growth in a cell viability assay.

[10] = test system: HEL; assay type: functional, cell-based, Homo sapiens; conditions: Homo sapiens, HEL;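 further: growth inhibition of HEL cells, read out with a cell viability assay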
Description: SANGER: Inhibition of human HEL cell growth in a cell viability assay.

[11] = test system: IST-MES1; assay type: functional, cell-based, Homo sapiens; conditions: Homo sapiens, IST-MES1;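 further: growth inhibition of IST-MES1 cells, measured with a cell viability assay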
Description: SANGER: Inhibition of human IST-MES1 cell growth in a cell viability assay.

[12] = test system: K562; assay type: functional, cell-based, Homo sapiens; conditions: Homo sapiens, K562
Description: SANGER: Inhibition of human K-562 cell growth in a cell viability assay.

[13] = test system: KS-1; assay type: functional, cell-based; conditions: Homo sapiens;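 further: growth inhibition of KS-1 cells, read out with a cell viability assay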
Description: SANGER: Inhibition of human KS-1 cell growth in a cell viability assay.

[14] = test system: L-363; assay type: functional, cell-based, Homo sapiens; conditions: Homo sapiens, L-363
Description: SANGER: Inhibition of human L-363 cell growth in a cell viability assay.

[15] = test system: L-428; assay type: functional, cell-based, Homo sapiens; conditions: Homo sapiens, L-428
Description: SANGER: Inhibition of human L-428 cell growth in a cell viability assay.

[16] = test system: LS-1034; assay type: functional, cell-based, Homo sapiens; conditions: Homo sapiens, LS-1034
Description: SANGER: Inhibition of human LS-1034 cell growth in a cell viability assay.

[17] = test system: LU-139; assay type: functional, cell-based, Homo sapiens; conditions: Homo sapiens, LU-139
Description: SANGER: Inhibition of human LU-139 cell growth in a cell viability assay.

[18] = test system: MFM-223; assay type: functional, cell-based, Homo sapiens; conditions: Homo sapiens, MFM-223
Description: SANGER: Inhibition of human MFM-223 cell growth in a cell viability assay.

[19] = test system: MOLT-4; assay type: functional, cell-based, Homo sapiens; conditions: Homo sapiens, MOLT-4;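 further: growth inhibition of MOLT-4 cells, determined with a cell viability readout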
Description: SANGER: Inhibition of human MOLT-4 cell growth in a cell viability assay.

[20] = test system: MPP-89; assay type: functional, cell-based, Homo sapiens; conditions: Homo sapiens, MPP-89;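 further: growth inhibition of human MPP-89 cells, read out with a cell viability assay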
Description: SANGER: Inhibition of human MPP-89 cell growth in a cell viability assay.

[21] = test system: MV4-11; assay type: functional, cell-based, Homo sapiens, MV-4-11; conditions: Homo sapiens, MV4-11;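 further: cell viability readout measuring growth inhibition of human MV-4-11 cells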
Description: SANGER: Inhibition of human MV-4-11 cell growth in a cell viability assay.

[22] = test system: Mo; assay type: functional, cell-based, Homo sapiens; conditions: Homo sapiens, Mo
Description: SANGER: Inhibition of human Mo-T cell growth in a cell viability assay.

[23] = test system: NB10; assay type: functional, cell-based, Homo sapiens; conditions: Homo sapiens, NB10;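 further: growth inhibition of NB10 cells, read out by a cell viability assay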
Description: SANGER: Inhibition of human NB10 cell growth in a cell viability assay.

[24] = test system: NB13; assay type: functional, cell-based, Homo sapiens; conditions: Homo sapiens, NB13;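 further: cell viability readout measuring growth inhibition of human NB13 cells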
Description: SANGER: Inhibition of human NB13 cell growth in a cell viability assay.

[25] = test system: NB69; assay type: functional, cell-based, Homo sapiens; conditions: Homo sapiens, NB69;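 further: growth inhibition of NB69 cells, determined by a cell viability assay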
Description: SANGER: Inhibition of human NB69 cell growth in a cell viability assay.

[26] = test system: NCI-H1299; assay type: functional, cell-based; conditions: Homo sapiens;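 further: growth inhibition of human NCI-H1299 cells, read out by a cell viability assay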
Description: SANGER: Inhibition of human NCI-H1299 cell growth in a cell viability assay.

[27] = test system: NCI-H1304; assay type: functional, cell-based, Homo sapiens; conditions: Homo sapiens, NCI-H1304;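 further: growth inhibition of the cancer cell line, measured in a cell viability assay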
Description: SANGER: Inhibition of human NCI-H1304 cell growth in a cell viability assay.

[28] = test system: NCI-H1648; assay type: functional, cell-based, Homo sapiens; conditions: Homo sapiens, NCI-H1648;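 further: cell viability assay measuring inhibition of NCI-H1648 cell growth, from the Sanger screening data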
Description: SANGER: Inhibition of human NCI-H1648 cell growth in a cell viability assay.

[29] = test system: NCI-H1770; assay type: functional, cell-based, Homo sapiens; conditions: Homo sapiens, NCI-H1770;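 further: growth inhibition of NCI-H1770 cells determined with a viability readout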
Description: SANGER: Inhibition of human NCI-H1770 cell growth in a cell viability assay.

[30] = test system: NCI-H1838; assay type: functional, cell-based, Homo sapiens; conditions: Homo sapiens, NCI-H1838;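 further: growth inhibition of NCI-H1838 cells, determined with a cell viability readout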
Description: SANGER: Inhibition of human NCI-H1838 cell growth in a cell viability assay.

[31] = test system: NCI-H720; assay type: functional, cell-based, Homo sapiens; conditions: Homo sapiens, NCI-H720;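 further: growth inhibition of human NCI-H720 cells determined by a cell viability assay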
Description: SANGER: Inhibition of human NCI-H720 cell growth in a cell viability assay.

[32] = test system: NH-12; assay type: functional, cell-based, Homo sapiens; conditions: Homo sapiens, NH-12;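 further: growth inhibition of NH-12 cells, read out with a cell viability assay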
Description: SANGER: Inhibition of human NH-12 cell growth in a cell viability assay.

[33] = test system: NOS-1; assay type: functional, cell-based, Homo sapiens; conditions: Homo sapiens, NOS-1;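 further: growth inhibition of the human NOS-1 cell line, read out with a cell viability assay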
Description: SANGER: Inhibition of human NOS-1 cell growth in a cell viability assay.

[34] = test system: OS-RC-2; assay type: functional, cell-based, Homo sapiens; conditions: Homo sapiens, OS-RC-2;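 further: growth inhibition of human OS-RC-2 cells, measured by a cell viability assay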
Description: SANGER: Inhibition of human OS-RC-2 cell growth in a cell viability assay.

[35] = test system: SF-126; assay type: functional, cell-based, Homo sapiens; conditions: Homo sapiens, SF-126;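 further: growth inhibition of human SF126 cells, read out with a cell viability assay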
Description: SANGER: Inhibition of human SF126 cell growth in a cell viability assay.

[36] = test system: SF-539; assay type: functional, cell-based, Homo sapiens; conditions: Homo sapiens, SF-539;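 further: Read-out is a cell viability assay, with IC50 reflecting inhibition of cell growth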
Description: SANGER: Inhibition of human SF539 cell growth in a cell viability assay.

[37] = test system: SK-MEL-2; assay type: functional, cell-based, Homo sapiens; conditions: Homo sapiens, SK-MEL-2;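 further: growth inhibition of human SK-MEL-2 cells measured with a cell viability assay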
Description: SANGER: Inhibition of human SK-MEL-2 cell growth in a cell viability assay.

[38] = test system: SK-NEP-1; assay type: functional, cell-based, Homo sapiens; conditions: Homo sapiens, SK-NEP-1;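 further: growth inhibition of human SK-NEP-1 cells, read out by a cell viability assay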
Description: SANGER: Inhibition of human SK-NEP-1 cell growth in a cell viability assay.

[39] = test system: SK-PN-DW; assay type: functional, cell-based, Homo sapiens; conditions: Homo sapiens, SK-PN-DW;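 further: growth inhibition measured with a viability assay on these cells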
Description: SANGER: Inhibition of human SK-PN-DW cell growth in a cell viability assay.

[40] = test system: SW684; assay type: functional, cell-based, Homo sapiens; conditions: Homo sapiens, SW684; read-out: IC50;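 further: growth inhibition of human SW684 cells, measured by a cell viability assay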
Description: SANGER: Inhibition of human SW684 cell growth in a cell viability assay.

[41] = test system: TE-1; assay type: functional, cell-based, Homo sapiens; conditions: Homo sapiens, TE-1;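 further: growth inhibition of the human TE-1 cell line, read out with a cell viability assay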
Description: SANGER: Inhibition of human TE-1 cell growth in a cell viability assay.

[42] = test system: 697; assay type: functional, cell-based, Homo sapiens; conditions: Homo sapiens
Description: SANGER: Inhibition of human 697 cell growth in a cell viability assay.

[43] = test system: ATN-1; assay type: functional, cell-based, Homo sapiens; conditions: Homo sapiens, ATN-1;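 further: growth inhibition of human ATN-1 cells, read out with a cell viability assay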
Description: SANGER: Inhibition of human ATN-1 cell growth in a cell viability assay.

[44] = test system: BB49-HNC; assay type: functional, cell-based, Homo sapiens; conditions: Homo sapiens, BB49-HNC;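 further: cell viability assay read-out, reported as inhibition of BB49-HNC cell growth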
Description: SANGER: Inhibition of human BB49-HNC cell growth in a cell viability assay.

[45] = test system: TE-12; assay type: functional, cell-based, Homo sapiens; conditions: Homo sapiens, TE-12;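 further: growth inhibition of TE-12 cells, read out by a cell viability assay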
Description: SANGER: Inhibition of human TE-12 cell growth in a cell viability assay.

[46] = test system: TE-6; assay type: functional, cell-based, Homo sapiens; conditions: Homo sapiens, TE-6;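 further: growth inhibition of TE-6 cells, read out with a cell viability assay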
Description: SANGER: Inhibition of human TE-6 cell growth in a cell viability assay.

[47] = test system: TK-10; assay type: functional, cell-based, Homo sapiens; conditions: Homo sapiens, TK-10;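 further: growth inhibition of TK-10 cells, read out in a cell viability assay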
Description: SANGER: Inhibition of human TK10 cell growth in a cell viability assay.

[48] = test system: CGTH-W-1; assay type: functional, cell-based, Homo sapiens; conditions: Homo sapiens, CGTH-W-1;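 further: growth inhibition of human CGTH-W-1 cells measured by cell viability assay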
Description: SANGER: Inhibition of human CGTH-W-1 cell growth in a cell viability assay.

[49] = test system: A704; assay type: functional, cell-based; conditions: Homo sapiens;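 further: growth inhibition of human A704 cells, read out with a cell viability assay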
Description: SANGER: Inhibition of human A704 cell growth in a cell viability assay.

O=C1NC(=O)c2c1c(-c1ccccc1Cl)cc1[nH]c3ccc(O)cc3c21
IC50 [1]: > 2000 nM | IC50 [2]: > 2000 nM | IC50 [3]: > 2000 nM | IC50 [4]: > 2000 nM | IC50 [5]: > 2000 nM | IC50 [6]: > 2000 nM | IC50 [7]: 947 nM | IC50 [8]: 666 nM | IC50 [9]: > 2000 nM | IC50 [10]: 1220 nM | IC50 [11]: > 2000 nM | IC50 [12]: > 2000 nM | IC50 [13]: > 2000 nM | IC50 [14]: 1530 nM | IC50 [15]: > 2000 nM | IC50 [16]: > 2000 nM | IC50 [17]: > 2000 nM | IC50 [18]: > 2000 nM | IC50 [19]: > 2000 nM | IC50 [20]: > 2000 nM | IC50 [21]: 809 nM | IC50 [22]: > 2000 nM | IC50 [23]: > 2000 nM | IC50 [24]: 946 nM | IC50 [25]: > 2000 nM | IC50 [26]: > 2000 nM | IC50 [27]: > 2000 nM | IC50 [28]: > 2000 nM | IC50 [29]: > 2000 nM | IC50 [30]: > 2000 nM | IC50 [31]: 1700 nM | IC50 [32]: > 2000 nM | IC50 [33]: > 2000 nM | IC50 [34]: > 2000 nM | IC50 [35]: > 2000 nM | IC50 [36]: 1250 nM | IC50 [37]: > 2000 nM | IC50 [38]: > 2000 nM | IC50 [39]: > 2000 nM | IC50 [40]: > 2000 nM | IC50 [41]: > 2000 nM | IC50 [42]: 431 nM | IC50 [43]: 316 nM | IC50 [44]: > 2000 nM | IC50 [45]: > 2000 nM | IC50 [46]: > 2000 nM | IC50 [47]: > 2000 nM | IC50 [48]: > 2000 nM

O=C(NCCCNc1nc(Nc2cccc(NC(=O)N3CCCC3)c2)ncc1I)c1cccs1 [BX-795]
IC50 [1]: > 5000 nM | IC50 [2]: 2380 nM | IC50 [3]: 1290 nM | IC50 [4]: 1190 nM | IC50 [5]: > 5000 nM | IC50 [6]: 836 nM | IC50 [8]: > 5000 nM | IC50 [10]: > 5000 nM | IC50 [11]: > 5000 nM | IC50 [12]: > 5000 nM | IC50 [13]: 1830 nM | IC50 [14]: 1180 nM | IC50 [15]: > 5000 nM | IC50 [16]: > 5000 nM | IC50 [18]: > 5000 nM | IC50 [19]: 1030 nM | IC50 [20]: > 5000 nM | IC50 [21]: 36.8 nM | IC50 [22]: > 5000 nM | IC50 [23]: 4230 nM | IC50 [24]: 4020 nM | IC50 [25]: 1160 nM | IC50 [26]: > 5000 nM | IC50 [27]: > 5000 nM | IC50 [28]: > 5000 nM | IC50 [29]: > 5000 nM | IC50 [30]: > 5000 nM | IC50 [32]: 2800 nM | IC50 [33]: > 5000 nM | IC50 [34]: > 5000 nM | IC50 [35]: 2440 nM | IC50 [36]: 3740 nM | IC50 [37]: 4020 nM | IC50 [38]: 1650 nM | IC50 [39]: > 5000 nM | IC50 [40]: > 5000 nM | IC50 [41]: > 5000 nM | IC50 [42]: 1020 nM | IC50 [49]: > 5000 nM | IC50 [43]: 1370 nM | IC50 [44]: > 5000 nM | IC50 [45]: > 5000 nM | IC50 [46]: > 5000 nM | IC50 [47]: > 5000 nM | IC50 [48]: 971 nM
